Experiments:
[1] = system: Frankliniella occidentalis; experiment: Y-tube olfactometer bioassay; format: in vivo; conditions: for MAC (%) = Minimum Active Concentration to elicit a response from thrips (P < 0.05): 1 µl undiluted or diluted in hexane; for % Response: percentage of thrips to walk up odour-laden arm: same cell prints a '(t value)' in brackets; for Behaviour-modifying activity towards Frankliniella occidentalis (in words): text statements (Table 2)
Description: The thrips behaviour-modifying activity of a compound may be evaluated in a glass Y-tube olfactometer following the method described by de Kogel et al. (de Kogel, W. J., Koschier, E. H. and Visser, J. H. Proc. Exper. & Appl. Entomol., N. E. V. Amsterdam, (1999) 10, 131-135.) and Koschier et al. (Koschier, E. H., De Kogel, W. J. and Visser, J. H. (2000) Jounrnal of Chemical Ecology, 26, 2643-2655).
The olfactory behaviour of thrips toward volatile compounds was evaluated in a glass Y-tube olfactometer following the method described by de Kogel et al. (de Kogel, W. J., Koschier, E. H. and Visser, J. H. Proc. Exper. & Appl. Entomol., N. E. V. Amsterdam, (1999) 10, 131-135.) and Koschler et al. (Koschier, E. H., De Kogel, W. J. and Visser, J. H. (2000) Journal of Chemical Ecology, 26, 2643-2655.). The Y-tube has two branching arms at an angle of 45° leading into a single tube, all 60 mm long, with an internal diameter of 5 mm. The arms of the Y-tube were connected to glass Wheaton Micro Kit® adapters that were in turn attached to 4 ml glass vials each containing a 1 cm^2 piece of filter paper (Whatman No. 1). The Y-tube and Wheaton apparatus were placed in a grey-box (to prevent external stimuli influencing thrips' behaviour), located in a darkened, air-conditioned room (22±3° C.). The Y-tube was placed at an inclining position of 25° between the Y-tube and horizontal plane and illuminated from above by a halogen lamp (780 lux). One microliter of the volatile compounds, either undiluted or diluted in hexane (95%, Pronalys AR), was applied to filter paper in one vial, while 1 μl of hexane was applied to filter paper held in the second vial. Air was drawn through activated charcoal before entering the Wheaton apparatus and Y-tube using a suction pump (AR Harris Co. Ltd, Christchurch) producing an airflow of 5 cm/s through each arm and 10 cm/s at the base of the Y-tube. Air was drawn through for 30 min before introducing the first thrips. Connections between the activated charcoal, Wheaton apparatus, Y-tube and suction pump consisted of silicone tubing.
An individual female Frankliniella occidentalis thrips of unknown age, that had been starved overnight, was released into the Y-tube using a small aspirator. The aspirator was made by placing a 1 ml pipette tip over the end of silicone tubing (5 mm diameter) the end of which was covered with fine mesh; the pipette tip was cut so it projected 5 mm beyond the end of the silicone tubing. A thrips was sucked up into the pipette tip, which was then placed at the base of the Y-tube. Most thrips walked up into the Y-tube within a few seconds, at which time the silicone air suction tubing was reconnected to the glass Y. The choice between clean or odour laden airflow was recorded when the thrips reached the far end of one arm and only those thrips that made the choice within 3 min were recorded. After every 5 thrips the Y-tube and Wheaton apparatus were rotated […] to avoid position effects. After 25 choices were recorded, the Y-tube and Wheaton apparatus were thoroughly cleaned with acetone (99.5%, BDH) and allowed to dry before repeating the experiment. Each compound and dilution was replicated 3 times.

[2] = system: Frankliniella occidentalis; conditions: MacDonald et al. 2002; cited from earlier work
Thrips obscuratus = experiment: Field trials with baited water traps; format: in vivo; conditions: for Average ratio of female thrips caught relative to water traps (95% CI): female Thrips obscuratus, field water traps, 1 ml compound, 24 or 48 h, * = P < 0.05 vs control trap, brackets = backtransformed 95% CI
Text: (§1) Water traps were placed out into a field comprising several species of grasses, white clover (Trifolium repens L.) and several weed species (≈100 mm in height). Grass and cereal fields surrounded the field trial area on three sides and poplar (Poplar nigra L.) trees on the other, on the Canterbury Agricultural Research Centre campus. Each field trial consisted of five replicates of five treatments including a water control, positive control compound (ethyl nicotinate, ethyl isonicotinate, or benzaldehyde, Table 1) and three test compounds set out in the field in a grid (10×10 m) using a Latin square design with the trial area at least 100 m from the field boundary/shelter belt. White plastic containers (2 L capacity, 16×16×8.5 cm) containing approximately 1.7 L water, 0.4 ml of formalin (to prevent fungal growth) and 0.08 ml tween were placed above the crop canopy on inverted white (2 L capacity, 16×16×8.5 cm) or black plastic containers (24 cm diameter, 13 cm tall). For each treatment, 1 ml of a compound or water was added to a glass vial (12×32 mm screw thread vial) containing a 4.5 cm^2 piece of rolled filter paper (Whatman No. 1) that projected 1 cm above the top of the vial, creating a wick. The glass vial was suspended above the water in the centre of the trap using wire (0.5 mm diameter). The vials were removed after 24 or 48 h and the containers were sealed for transport to a laboratory. The contents from a water trap were poured through a sieve (250 μm mesh) and all insects were washed into a 50 ml Schott bottle within 24 h of collecting them from the field. All thrips were pipetted from each water trap sample and counted. Thrips were mounted on to slides using polyvinyl alcohol glue (1 part polyvinyl alchol: 4 parts water, 1 part lactic acid: 1.25 parts phenyl) from each trap using the following subsample method: less than 50 thrips, all thrips were mounted on to a slide; 50 to 100 thrips, a subsample of 25 thrips were mounted on to a slide; more than 100 thrips, a subsample of 50 thrips were mounted on to a slide. The slides were examined under 100× magnification using a compound microscope to identify thrips species. Subsampled thrips were sexed and identified to species according to Mound and Walker (Mound, L. A. and Walker, A. K. 1982. Terebrantia (Insecta: Thysanoptera). Fauna of New Zealand No. 1.). The mean number of each species for each treatment was calculated by multiplying the proportion of each species within a subsample with the total number of thrips counted in each water trap.

[3] = system: Frankliniella occidentalis; experiment: Greenhouse trials with water traps or yellow sticky traps; format: in vivo; conditions: 24 h, capsicum greenhouse, t-value in brackets in same cell
Text: Greenhouse trials were undertaken using water traps similar to those used in the field trials (Example 2), or yellow sticky traps (Veg-Gro Supplies Ltd, Auckland) to examine the response of thrips to volatile compounds. The greenhouse, located in Auckland, is ≈88×200 m, constructed of glass, and is used to grow capsicum (Capsicum annuum var. Special, Fiesta, Boogie and Stirit). Water traps were placed 20 to 24 m apart within a row and 24 m apart between rows. There were 6 baited water traps for each compound tested and 6 water-only traps randomly positioned in a 6×2 grid in the greenhouse. Traps were positioned just above the crop canopy. Water traps (2 L containers, 16×16×8.5 cm) were assembled as described in Example 2 and left in the greenhouse for 24 h, after which time the containers were sealed for transport to a laboratory. Insects from each water trap were transferred to 5 ml glass tubes containing 75% ethanol within 24 h of collecting them from the greenhouse. Catches from each treatment were analysed under a stereomicroscope (100×) and the proportion of Frankliniella occidentalis was determined.
Yellow sticky traps (24.4×20 cm) were treated with a compound or water using a 30 ml spray mist dripulator (Arthur Holmes, Wellington) held 10 cm away from the sticky trap. Four sprays were applied to each side, coating the sticky trap in approximately 1 ml of water or compound. Sticky traps sprayed with the same treatment were separated using black metal foldback clips (19 mm, Celco), suspended within a cardboard box (29.5×22.3×30.2 cm), which was in turn sealed within a plastic bag for transport to the greenhouse. Traps were suspended in the greenhouse just above the crop canopy within 3 h after spraying, using the same layout as for the water traps (20 to 24 m apart within a row, 24 m between rows, in a 6×2 grid). After 24 h the traps were collected by wrapping each trap in plastic wrap for transport to the laboratory. The total number of thrips on the traps were counted using 10× magnification. Thrips were removed from the sticky traps using De-Solv-it® and Johnsons baby oil®. A subsample from each treatment was further analysed under a stereomicroscope (100×) and the proportion of Frankliniella occidentalis was determined.

Thrips tabaci = experiment: Field trials with baited water traps; format: in vivo; conditions: field trials (Table 1)
Text: as §1

[4] = female Frankliniella occidentalis, Y-tube
[5] = female Frankliniella occidentalis
[6] = Yellow sticky trap, about 1 ml sprayed, >95% of thrips caught were Frankliniella occidentalis
[7] = Water trap, around 66% of thrips caught were Frankliniella occidentalis

| SMILES | MAC (%) = Minimum Active Concentration to elicit a response from thrips (P < 0.05) [1, 5] | % Response: percentage of thrips to walk up odour-laden arm [1, 5] | Behaviour-modifying activity towards Frankliniella occidentalis (in words) [1] | other results |
| --- | --- | --- | --- | --- |
| N#Cc1ccncc1 [4-Cyanopyridine] | <100% | 38.7 (0.026) % | thrips-repellant activity | Comment (repellant) [1, 4]: Repellant |
| O=Cc1ccncc1 [4-Formylpyridine] | 0.001% | 66.7 (0.002) % |  | Comment: concentration above which the compound is repellant ([1]; female Frankliniella occidentalis, Y-tube, no unit in the cell (MAC column is in %)): Repellant > 0.01; Activity towards Frankliniella occidentalis at high concentration ([1]; high concentration): repellant; Activity towards Frankliniella occidentalis at low concentration ([1]; low concentration): attractant |
| CC(=O)Sc1ccncc1 [4-Pyridyl thioacetate] | <100% | 26.7 (<0.001) % | thrips-repellant activity | Comment (repellant) [1, 4]: Repellant |
| CCCCCCCCCCOC(C)=O [Decyl acetate] |  |  |  | Repellant activity towards Frankliniella occidentalis (literature, alarm pheromones) [2]: repellant activity |
| CCCCCCCCCCOC(=O)c1ccncc1 [Decyl isonicotinate] |  |  |  | Average ratio of female thrips caught relative to water traps (95% CI) (Thrips obscuratus): 14.9 (0.3, 739.5) |
| CC(C)N(C(=O)c1ccncc1)C(C)C [Di-iso-Propyl isonicotinate, diisopropyl isonicotinamide] | <100% | 81.3 (<0.001) % | attractant |  |
| CCOC(=O)c1ccnc(Cl)c1 [Ethyl 2-chloro-isonicotinate] | 0.0001% | 65.3 (0.005) % | strong attractant | Average ratio of thrips caught relative to water treated traps [3, 6]: 1.8 (2.8) |
| CCC(=O)c1ccncc1 [Ethyl 4-pyridyl ketone] | 1% | 68.0 (0.001) % |  | Attractancy to Thrips tabaci (in words) (Thrips tabaci): attractants |
| CCOC(=O)c1ccncc1 [Ethyl isonicotinate] | 0.001% | 60.0 (0.043) % |  | Average ratio of thrips caught relative to water treated traps [3, 7]: 2.2 (2.8); Average ratio of thrips caught relative to water treated traps [3, 6]: 2.6 (3.9) |
| CC(C)OC(=O)c1ccncc1 [Isopropyl isonicotinate] | 1% | 66.7 (0.002) % |  |  |
| CC(=O)c1ccncc1 [Methyl 4-pyridyl ketone] | 0.001% | 77.3 (<0.001) % |  | Average ratio of thrips caught relative to water treated traps [3, 6]: 3.1 (6.6); Average ratio of female thrips caught relative to water traps (95% CI) (Thrips obscuratus): 0 (0.0, >1000); Attractancy to Thrips tabaci (in words) (Thrips tabaci): attractants |
| COC(=O)c1ccncc1 [Methyl isonicotinate] | 0.0001% | 74.7 (<0.001) % |  | Average ratio of thrips caught relative to water treated traps [3, 7]: 4.3 (5.7); Average ratio of thrips caught relative to water treated traps [3, 6]: 3.7 (8.1) |
| c1cc(C2OCCO2)ccn1 [Pyridine, 4-(1,3-dioxalan-2-yl), 4-(1,3-Dioxolan-2-yl)pyridine] | 1% |  |  | Average ratio of female thrips caught relative to water traps (95% CI) (Thrips obscuratus): 16.6 (0.3, 827.2) |
| CCCCCCCCCCCCOC(C)=O [dodecyl acetate] |  |  |  | Repellant activity towards Frankliniella occidentalis (literature, alarm pheromones) [2]: repellant activity |
| CCCCCCOC(=O)c1ccncc1 [hexyl isonicotinate] |  |  |  | Attractancy to Thrips obscuratus (in words) (Thrips obscuratus): not found to be significantly attractive; Attractancy to Thrips tabaci (in words) (Thrips tabaci): not found to be significantly attractive |
| C=C(C)CCOC(=O)c1ccncc1 [isopentenyl isonicotinate] |  |  | not found to be significantly attractive or repulsive |  |
| CCCC(=O)c1ccncc1 [n-Propyl 4-pyridyl ketone] | 100% | 54.7 (0.282) % | attractant |  |
| CCCOC(=O)c1ccncc1 [n-Propyl isonicotinate] | 0.1% | 61.3 (0.026) % |  |  |
